Literature values in US20250352610A1, “NOVEL COMPOSITION” (Arecor Limited, priority 2022, published 2025).

Settings: excipients of VancoReady; black box warning

## CC(=O)N[C@H](C)C(=O)O [N-acetyl-D-alanine]
  Fetal malformations in animal reproductive studies: cause fetal malformations
